Laboratory results as given in patent US20110118350A1, “COMPOSITION FOR PREVENTING CARDIOVASCULAR EVENT IN HIGH-RISK PATIENT” (MOCHIDA PHARMACEUTICAL CO., LTD., priority 2008, published 2011).

Assay: Plasma OA/SA ratio in DELIS trial patients (fatty acid composition of plasma)
Type: in vivo, human
Conditions: for OA/SA ratio in plasma, Average: statin base drug
Text: The ratio of oleic acid (OA) to stearic acid (SA) in plasma can be calculated by collecting blood from a patient and measuring the levels of the individual fatty acids such as OA and SA or the ratio of the individual fatty acids in the total fatty acids by, for example, gas chromatography. The OA/SA ratio can be also calculated from the individual fatty acid levels obtained by performing a clinical test item, that is, fractionation of fatty acids in total lipids which can be performed by, for example, SRL, Inc. The measurement method and calculation method are not particularly limited. The fatty acid fractionation into 24 fractions is a testing method which involves fractionating fatty acids including unsaturated fatty acids into specific 24 fractions and quantitatively determining the fractions by gas chromatography. More specifically, the plasma fatty acids are extracted by the method of, for example, Folch et al. (Folch J. et al., J. Biol. Chem. 226, 497-509 (1957)). It is possible to use tricosanoic acid (C23:0) as an internal standard, to convert each fatty acid into a methyl ester by addition of boron trifluoride and methanol, and to quantitatively determine the methyl ester of each fatty acid by measurement using a gas chromatograph such as SHIMAZU GC-17A (Shimadzu Corporation) and a capillary column such as BPX70 (with an internal diameter of 0.25 mm and a length of 30 m; SGE International Ltd.). However, this is not the sole method of the invention. This trial corresponds to a partial analysis of the results obtained in DELIS (Japan EPA Lipid Intervention Study) which is a large scale clinical trial of high purity EPA preparation which was presented in the American College of Cardiology 2005 Annual Meeting (for general information on DELIS, see Lancet, vol. 369, pp. 1090-1098 (2007)). […]

CC/C=C\C/C=C\C/C=C\C/C=C\C/C=C\CCCC(=O)OCC [EPA-E, ethyl icosapentate]
change of OA/SA ratio in plasma (after the administration of EPA-E): significant decrease | OA/SA ratio in plasma, Average (before start of trial): 2.96 | OA/SA ratio in plasma, Average (during whole observation period, Epadel 600 mg 3 times a day oral): 2.78
